“Also recorded” adds a separate entry of the source. Positions of bridges follow the written chain, without caps; N, C: chain ends. Non-standard residues stand in square brackets, D forms with d. Residues, ends and D or L forms follow the SMILES beside them. Chains are numbered I, II in the order given. *: point of attachment. Fluorescein(5-Mal) = O=C1OC2(c3ccc(O)cc3Oc3cc(O)ccc32)c2ccc(N3C(=O)CC(*)C3=O)cc21; Gly(N(CH2)2(3-indolyl)) = O=C(O)CNCCc1c[nH]c2ccccc12; Gly(N-piperonyl) = O=C(O)CNCc1ccc2c(c1)OCO2; Nrpe = C[C@@H](NCC(=O)O)c1ccccc1; NFurfurylGly = O=C(O)CNCc1ccco1; Nleu = CC(C)CNCC(=O)O; Nlys = NCCCCNCC(=O)O; Ahx = NCCCCCC(=O)O; βAla = NCCC(=O)O
Key:
VEGFR2 [1] = biological target: T1, VEGFR2 (Homo sapiens, UniProt P35968); experiment: ELISA-like binding assay, fluoresceinated peptoids on immobilized VEGFR2 extracellular domain; design: VEGFR2 extracellular domain (amino acids 1-764 fused to 6× histidine-tagged Fc of human IgG, via the peptide IEGRMD; R&D Systems); linker peptide IEGRMD (internal); Fc of human IgG (C); 6xHis (C); purchased R&D Systems; details: for Fold improved: binding improved compared to the monomer of the series
Method: ELISA based binding assay. White, clear bottom 96-well plates (Corning Inc.) were coated with of 1 μg/ml recombinant human VEGFR2 protein (R&D Systems) using the sensitizing buffer (0.621 g NaHCO3 & 0.275 g Na2CO3 dissolved on 100 ml of ddH2O, pH=9.5) overnight at 4° C. Washed with 3×200 μl of wash buffer 1×PBS with 0.05% Tween-20 and blocked with Startingblock blocking buffer (Pierce). Added 50 μl of serial dilutions of FITC labeled peptoids dissolved in Startingblock blocking buffer to each well & allowed to react for 1 h at room temperature. Washed with 5×200 μl of wash buffer 1×PBS with 0.05% Tween-20 and remaining fluorescence was measured at 520 nm using the plate reader.
The isolated peptoids are VEGFR2 ligands. Two of the ‘hits’ from this screen, GU40C and GU40E (see FIG. 2) were resynthesized, both as free compounds and with C-terminal Cys (for C-terminal fluorescein tagging via maleimide chemistry), cleaved from the beads and purified to apparent homogeneity by reverse phase HPLC. […] The association of these peptoids with VEGFR2 was evaluated using an ELISA-like assay. A commercially available fusion protein containing the VEGFR2 extracellular domain (amino acids 1-764 fused to 6× histidine-tagged Fc of human IgG, via the peptide IEGRMD; R&D Systems) was plated into 96-well plates and then mixed with various concentrations of […] Fluorescein (FITC)-labeled peptoid. After washing away unbound peptoid, the remaining fluorescence emission signal was measured at 520 nm. In this assay purified VEGFR2 protein was used instead of the whole PAE/KDR cells that over express VEGFR2, in order to confirm these compounds were binding only to the receptor.
Target sequence in this assay (P35968 20-764): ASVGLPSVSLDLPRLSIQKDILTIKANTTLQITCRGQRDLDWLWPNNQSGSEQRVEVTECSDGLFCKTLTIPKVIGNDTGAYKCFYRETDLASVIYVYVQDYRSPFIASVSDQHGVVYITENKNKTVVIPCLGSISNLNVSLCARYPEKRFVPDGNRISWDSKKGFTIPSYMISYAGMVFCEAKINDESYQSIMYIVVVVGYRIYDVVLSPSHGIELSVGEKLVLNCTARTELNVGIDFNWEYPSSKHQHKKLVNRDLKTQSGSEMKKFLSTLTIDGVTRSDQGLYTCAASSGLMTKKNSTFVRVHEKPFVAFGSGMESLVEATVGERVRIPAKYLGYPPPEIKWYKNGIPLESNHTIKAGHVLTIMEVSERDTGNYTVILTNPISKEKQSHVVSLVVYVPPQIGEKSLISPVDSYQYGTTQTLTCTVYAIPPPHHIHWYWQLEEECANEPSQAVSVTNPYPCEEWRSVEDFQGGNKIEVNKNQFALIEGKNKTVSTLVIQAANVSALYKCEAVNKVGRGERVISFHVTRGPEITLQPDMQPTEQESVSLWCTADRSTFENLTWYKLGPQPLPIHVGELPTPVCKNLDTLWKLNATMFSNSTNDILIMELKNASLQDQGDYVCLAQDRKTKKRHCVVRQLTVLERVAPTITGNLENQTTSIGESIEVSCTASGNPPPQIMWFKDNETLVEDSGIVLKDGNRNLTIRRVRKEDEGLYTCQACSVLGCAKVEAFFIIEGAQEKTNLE

GST = experiment: ELISA-like binding assay on immobilized GST
CD105 = biological target: T2, CD105 (Homo sapiens, UniProt P17813); experiment: ELISA-like binding assay on immobilized CD105; details: same ELISA-like assay
T2 sequence (P17813 26-658): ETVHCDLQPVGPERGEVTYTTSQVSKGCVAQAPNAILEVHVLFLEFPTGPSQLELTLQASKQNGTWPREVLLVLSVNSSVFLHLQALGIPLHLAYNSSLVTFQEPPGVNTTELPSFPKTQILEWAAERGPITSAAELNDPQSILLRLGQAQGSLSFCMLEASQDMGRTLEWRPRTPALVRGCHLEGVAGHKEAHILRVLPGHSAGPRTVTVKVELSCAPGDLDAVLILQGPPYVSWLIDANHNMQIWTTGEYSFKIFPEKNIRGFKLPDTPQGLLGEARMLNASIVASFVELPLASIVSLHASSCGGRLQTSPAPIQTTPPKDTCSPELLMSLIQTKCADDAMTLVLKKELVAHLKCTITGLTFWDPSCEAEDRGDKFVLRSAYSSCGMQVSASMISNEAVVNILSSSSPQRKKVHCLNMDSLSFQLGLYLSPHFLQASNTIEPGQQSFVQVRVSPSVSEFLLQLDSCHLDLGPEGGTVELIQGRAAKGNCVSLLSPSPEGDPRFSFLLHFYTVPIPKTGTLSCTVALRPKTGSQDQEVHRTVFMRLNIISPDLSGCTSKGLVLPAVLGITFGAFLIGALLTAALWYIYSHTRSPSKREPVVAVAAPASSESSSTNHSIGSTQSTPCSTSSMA

VEGFR2 [2] = biological target: T1, VEGFR2; experiment: VEGF-induced VEGFR2 autophosphorylation in PAE/KDR cells, Western blot; type: cell-based; design: allow the library to be screened against the full-length receptor in as natural an environment as possible; host or cells: PAE/KDR (porcine aortic endothelial cells expressing human KDR); details: for agonist activity on VEGFR2 phosphorylation: PAE/KDR cells, Western blot; for effect on VEGF-induced VEGFR2 phosphorylation (in words): monomeric peptoids, 500 μM
Method: Western blots. Experiments were conducted using PAE/KDR cells that were grown on 6-well plates. […] The blots were probed with Phospho-VEGF receptor 2 (Tyr1175) (19A10) rabbit monoclonal or Total VEGFR2 primary antibodies (Cell signaling) and HRP-conjugated secondary antibody (BioRad).
Functional characterization of the VEGFR2-binding peptoids. GU40C and GU40E were then tested for their ability to modulate VEGFR function. Of course, since the screen simply demanded binding of the peptoid to the receptor, it was not a given that this would be the case. […] Western blot analysis using phospho-VEGFR2-specific antibodies was then employed to monitor receptor activation.
To do so, the inventors examined the effect of the peptoid on VEGF-induced VEGFR2 autophosphorylation by Western blotting, as described earlier.
Target sequence in this assay (P35968 20-1356): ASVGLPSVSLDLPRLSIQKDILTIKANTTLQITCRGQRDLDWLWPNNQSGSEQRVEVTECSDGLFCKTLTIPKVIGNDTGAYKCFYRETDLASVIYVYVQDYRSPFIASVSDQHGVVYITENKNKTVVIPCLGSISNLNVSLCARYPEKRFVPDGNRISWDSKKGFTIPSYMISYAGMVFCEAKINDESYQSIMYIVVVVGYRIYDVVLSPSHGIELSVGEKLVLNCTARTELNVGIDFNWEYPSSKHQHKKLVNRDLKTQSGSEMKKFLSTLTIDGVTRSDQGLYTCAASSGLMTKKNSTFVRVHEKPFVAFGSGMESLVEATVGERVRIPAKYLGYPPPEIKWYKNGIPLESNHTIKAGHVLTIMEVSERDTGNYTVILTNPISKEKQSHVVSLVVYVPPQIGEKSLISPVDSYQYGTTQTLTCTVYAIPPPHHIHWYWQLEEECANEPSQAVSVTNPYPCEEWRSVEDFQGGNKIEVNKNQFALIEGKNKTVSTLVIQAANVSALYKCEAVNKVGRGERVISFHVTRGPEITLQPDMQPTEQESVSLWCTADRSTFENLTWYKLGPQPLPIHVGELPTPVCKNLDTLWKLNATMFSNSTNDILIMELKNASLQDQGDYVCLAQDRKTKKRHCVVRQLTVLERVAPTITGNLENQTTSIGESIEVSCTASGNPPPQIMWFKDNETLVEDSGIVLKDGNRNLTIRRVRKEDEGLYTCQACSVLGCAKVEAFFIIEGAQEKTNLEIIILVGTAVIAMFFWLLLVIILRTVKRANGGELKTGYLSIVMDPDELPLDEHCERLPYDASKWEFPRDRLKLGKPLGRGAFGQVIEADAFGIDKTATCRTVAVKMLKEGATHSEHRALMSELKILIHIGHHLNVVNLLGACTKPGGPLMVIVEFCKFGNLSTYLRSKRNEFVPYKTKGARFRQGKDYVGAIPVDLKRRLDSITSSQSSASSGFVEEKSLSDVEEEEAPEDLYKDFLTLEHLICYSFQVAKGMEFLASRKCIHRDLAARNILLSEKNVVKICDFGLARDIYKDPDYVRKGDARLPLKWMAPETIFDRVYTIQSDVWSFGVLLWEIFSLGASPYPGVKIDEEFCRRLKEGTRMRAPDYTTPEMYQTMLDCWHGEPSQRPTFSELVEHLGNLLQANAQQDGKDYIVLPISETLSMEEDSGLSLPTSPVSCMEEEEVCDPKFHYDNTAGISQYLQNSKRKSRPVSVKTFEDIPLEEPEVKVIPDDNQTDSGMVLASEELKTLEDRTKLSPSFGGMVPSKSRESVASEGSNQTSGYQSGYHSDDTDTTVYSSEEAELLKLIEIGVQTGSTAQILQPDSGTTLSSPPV

Row | Compound | Fold improved (VEGFR2 [1]) [fold] | agonist activity on VEGFR2 phosphorylation (VEGFR2 [2]) | effect on VEGF-induced VEGFR2 phosphorylation (in words) (VEGFR2 [2]; 1.3 nM VEGF) | further results
1 | CC(C)CN(CC(=O)N(CCCCN)CC(=O)N(CC(=O)N(CC(=O)N(CCCCN)CC(=O)N(CC(=O)N(CCCCN)CC(=O)N(CCCCN)CC(=O)NCCCC[C@H](NC(=O)CCNC(=O)CN(CCCCN)C(=O)CN(CCCCN)C(=O)CN(CC(C)C)C(=O)CN(CCCCN)C(=O)CN(Cc1ccc2c(c1)OCO2)C(=O)CN(C(=O)CN(CCCCN)C(=O)CN(CC(C)C)C(=O)CNCCCCN)[C@H](C)c1ccccc1)C(=O)N[C@@H](CSC1CC(=O)N(c2ccc3c(c2)C(=O)OC32c3ccc(O)cc3Oc3cc(O)ccc32)C1=O)C(N)=O)CC(C)C)Cc1ccc2c(c1)OCO2)[C@H](C)c1ccccc1)C(=O)CNCCCCN (some centres unmarked) [GU40C2] (I: H-[Nlys][Nleu][Nlys][Nrpe][Gly(N-piperonyl)][Nlys][Nleu][Nlys][Nlys][βAla]KC(Fluorescein(5-Mal))-NH2 / II: H-[Nlys][Nleu][Nlys][Nrpe][Gly(N-piperonyl)][Nlys][Nleu][Nlys][Nlys]; amide I:11-II:C; N-terminus assumed) | 11 | – | – | –
2 | CC(C)CN(CC(=O)N(CCCCN)CC(=O)N(CCCCN)CC(=O)NCCCC[C@H](NC(=O)CCNC(=O)CN(CCCCN)C(=O)CN(CCCCN)C(=O)CN(CC(C)C)C(=O)CN(CCCCN)C(=O)CN(CC(C)C)C(=O)CN(CCCCN)C(=O)CN(Cc1ccco1)C(=O)CN(CCCCN)C(=O)CNCCc1c[nH]c2ccccc12)C(=O)N[C@@H](CSC1CC(=O)N(c2ccc3c(c2)C(=O)OC32c3ccc(O)cc3Oc3cc(O)ccc32)C1=O)C(N)=O)C(=O)CN(CCCCN)C(=O)CN(CC(C)C)C(=O)CN(CCCCN)C(=O)CN(Cc1ccco1)C(=O)CN(CCCCN)C(=O)CNCCc1c[nH]c2ccccc12 (some centres unmarked) [GU40E2] (I: H-[Gly(N(CH2)2(3-indolyl))][Nlys][NFurfurylGly][Nlys][Nleu][Nlys][Nleu][Nlys][Nlys][βAla]KC(Fluorescein(5-Mal))-NH2 / II: H-[Gly(N(CH2)2(3-indolyl))][Nlys][NFurfurylGly][Nlys][Nleu][Nlys][Nleu][Nlys][Nlys]; amide I:11-II:C; N-terminus assumed) | 2 | – | – | –
3 | CC(C)CN(CC(=O)N(CCCCN)CC(=O)N(CCCCN)CC(=O)NCCCCCC(=O)NCCC(=O)N[C@@H](CCCCNC(=O)CN(CCCCN)C(=O)CN(CCCCN)C(=O)CN(CC(C)C)C(=O)CN(CCCCN)C(=O)CN(CC(C)C)C(=O)CN(CCCCN)C(=O)CN(Cc1ccco1)C(=O)CN(CCCCN)C(=O)CNCCc1c[nH]c2ccccc12)C(=O)N[C@@H](CSC1CC(=O)N(c2ccc3c(c2)C(=O)OC32c3ccc(O)cc3Oc3cc(O)ccc32)C1=O)C(N)=O)C(=O)CN(CCCCN)C(=O)CN(CC(C)C)C(=O)CN(CCCCN)C(=O)CN(Cc1ccco1)C(=O)CN(CCCCN)C(=O)CNCCc1c[nH]c2ccccc12 (some centres unmarked) [GU40E4] (I: H-[Gly(N(CH2)2(3-indolyl))][Nlys][NFurfurylGly][Nlys][Nleu][Nlys][Nleu][Nlys][Nlys][Ahx][βAla]KC(Fluorescein(5-Mal))-NH2 / II: H-[Gly(N(CH2)2(3-indolyl))][Nlys][NFurfurylGly][Nlys][Nleu][Nlys][Nleu][Nlys][Nlys]; amide I:12-II:C; N-terminus assumed) | 9 | – | – | –
4 | CC(C)CN(CC(=O)N(CCCCN)CC(=O)N(CCCCN)CC(N)=O)C(=O)CN(CCCCN)C(=O)CN(CC(C)C)C(=O)CN(CCCCN)C(=O)CN(Cc1ccco1)C(=O)CN(CCCCN)C(=O)CNCCc1c[nH]c2ccccc12 [GU40E, Ntrp-Nlys-Nffa-Nlys-Nleu-Nlys-Nleu-Nlys-Nlys] (H-[Gly(N(CH2)2(3-indolyl))][Nlys][NFurfurylGly][Nlys][Nleu][Nlys][Nleu][Nlys][Nlys]-NH2) | – | Neither peptoid at any concentration tested evinced agonist activity; also recorded: None of the peptoids exhibited agonist activity | weak antagonists | binding to GST (GST): did not bind detectably; binding to CD105 (CD105): did not bind detectably; binding after pre-incubation of immobilized receptor with unlabeled VEGF (VEGFR2 [1]; fluoresceinated peptoid): almost no binding
5 | Avastin: ultra-high affinity anti-VEGF antibody employed clinically [reference compound] | – | – | – | effect on VEGFR2 autophosphorylation (in words) (VEGFR2 [2]; 1 μM, 1.3 nM VEGF): completely blocked
6 | Nlys-Npip-Nleu-Nlys-Npip-Nlys-Nleu-Nlys-Nlys [GU40B] | – | None of the peptoids exhibited agonist activity | no effect | –
